Data published in PMC6680932, “Structure–Antioxidant–Antiproliferative Activity Relationships of Natural C7 and C7–C8 Hydroxylated Flavones and Flavanones” (Antioxidants, 2019).

Key:
[1] = ABTS radical cation decolorization assay; conditions: 6 min incubation, 734 nm; mean ± SD
Procedure: (§1) The antioxidant capacity of flavonoids was measured in three separate tests: ABTS, DPPH, and ferric ion reducing antioxidant power (FRAP) assays (ABTS, DPPH, and FRAP reagents from Sigma-Aldrich). All tested compounds were dissolved in DMSO. All determinations were performed in triplicate. Standard curves were prepared for all assays using different concentrations of Trolox (6-hydroxy-2,5,7,8-tetramethylchroman-2-carboxylic acid) (Sigma-Aldrich). Trolox is a water-soluble analogue of vitamin E with high antioxidant activity, commonly used as a control and a reference in studies of antioxidant activity. The results were expressed as the equivalent of μmol Trolox per μmol of the test compound. The absorbance was measured using a UV-2401 PC spectrophotometer (Shimadzu, Kyoto, Japan). Concentrations of the tested samples were in the range from 50 µg/mL to 10 mg/mL.
The radical cation scavenging capacity of the tested compounds was examined against ABTS^+ (2,2’-azino-bis(3-ethylbenzo-thiazoline-6-sulfonic acid) according to the procedure described by Re et al. with some modifications. The test sample (30 μL) of known concentration was mixed in a polystyrene cuvette with 3 mL of ABTS solution with a measured absorption of 0.700 at a wavelength of λ = 734 nm. After 6 min of incubation, the absorption of samples was recorded. The ABTS reagent was freshly prepared before each experiment.

[2] = DPPH free radical scavenging activity assay; conditions: 10 min, 517 nm; mean ± SD
Procedure: as §1
The DPPH (2,2-diphenyl-1-picrylhydrazyl) radical scavenging activity of samples was determined according to the method described by Yen and Chen with some modifications. Samples (0.1 mL) of known concentration were mixed in polystyrene cuvettes with 2 mL of 0.04 mM DPPH in ethanol and 0.4 mL of ethanol. The absorbance was measured after 10 min at λ = 517 nm. The DPPH reagent was freshly prepared before each experiment.

[3] = tested on: HLMEC (lung microvascular endothelial cells); assay: Antiproliferative activity in vitro, SRB assay; type: cell-based, human; conditions: Homo sapiens, Endothelial cell; 72 h exposure, SRB; normal cell line; read-out: IC50 ± SD HLMEC
Procedure: (§2) The antiproliferative studies were performed in vitro using human cancer cell lines—MV-4-11 (biphenotypic B myelomonocytic leukemia), MCF7 (breast carcinoma), LoVo (colon cancer), LoVo/DX (colon cancer doxorubicin-resistant), and DU 145 (prostate cancer)—and normal human cell lines—MCF 10A (breast cells) and HLMEC (lung microvascular endothelial cells). The cell lines MV-4-11, LoVo, DU 145, and MCF 10A were obtained from the American Type Culture Collection (Rockville, Maryland, USA), MCF7 from the European Collection of Authenticated Cell Cultures (ECACC, Salisbury, UK), LoVo/DX courtesy of Professor E. Borowski (Technical University of Gdansk, Poland), and HLMECs (which had been already immortalized by transfection with pSV3-neoplasmid containing large T-antigen gene) were the kind gift of Professor Claudine Kieda (Center for Molecular Biophysics, Orleans, France). The cell lines are being maintained in the Hirszfeld Institute of Immunology and Experimental Therapy, Polish Academy of Sciences (HIIET, PAS), Wroclaw, Poland. All cell lines were grown at 37 °C with 5% CO2 humidified atmosphere. The MV-4-11 cells were cultured in RPMI 1640 medium with GlutaMAX (Gibco, Scotland, UK), supplemented with 1 mM sodium pyruvate and 10% fetal bovine serum (both from Sigma-Aldrich, Poznan, Poland). The MCF7 cells were cultured in Eagle medium (HIIET, PAS, Wroclaw, Poland) supplemented with 2 mM L-glutamine, 10% fetal bovine serum, 1% nonessential amino acid solution, and 0.8 mg/L of insulin (all from Sigma-Aldrich, Poznan, Poland). The LoVo and LoVo/DX cells were cultured in a 1:1 (v/v) mixture of RPMI 1640 and Opti-MEM (both HIIET, PAS, Wroclaw, Poland), supplemented with 1 mM sodium pyruvate, 2 mM L-glutamine, and 5% fetal bovine serum (all from Sigma-Aldrich, Poznan, Poland). For LoVo/DX cells, additionally 10 µg/100 mL of doxorubicin (Accord Healthcare) was added to the medium. DU 145 cells were cultured in Eagle medium (HIIET, PAS, Wroclaw, Poland) supplemented with 1 mM sodium pyruvate, 4 mM L-glutamine, and 10% fetal bovine serum (all from Sigma-Aldrich, Poznan, Poland). The MCF 10A cells were cultured in the F-12 nutrient mixture (Gibco, Scotland, UK), supplemented with 5% horse serum (Gibco, Scotland, UK), 0.05 μg/mL of cholera toxin (Vibrio cholerae), 0.5 μg/mL of hydrocortisone, 10 μg/mL of insulin, and 20 ng/mL of human epidermal growth factor (all from Sigma-Aldrich, Poznan, Poland). The HLMEC cells were cultured in the RPMI 1640 medium (HIIET, PAS, Wroclaw, Poland) with the addition of 2 mM L-glutamine (Sigma-Aldrich, Poznan, Poland) and 10% fetal bovine serum (GE Healthcare). All culture media were supplemented with 100 units/mL penicillin (Polfa Tarchomin S.A., Warsaw, Poland) and 100 µg/mL streptomycin (Sigma-Aldrich, Poznan, Poland). Twenty-four hours before addition of the tested agents, the cells were plated in 96-well plates (Sarstedt, Germany) at a density of 1 × 10^4 (1 × 10^3 for HLMEC and 0.75 × 10^4 for MCF7) cells per well in 100 μL of culture medium.
(§3) Tested compounds were dissolved in DMSO and then diluted in a 1:1 (v/v) mixture of RPMI 1640 (HIIET, PAS, Wroclaw, Poland) and Opti-MEM (Gibco, Scotland, UK) medium supplemented with 2 mM L-glutamine (Sigma-Aldrich, Poznan, Poland), 5% fetal bovine serum (GE Healthcare), 100 units/mL penicillin (Polfa Tarchomin S.A., Warsaw, Poland), and 100 µg/mL streptomycin (Sigma-Aldrich, Poznan, Poland). The antiproliferative effects of the flavonoids were examined after 72 h of exposure of the cultured cells to varying concentrations of the tested agents (from 0.1 to 100 μg/mL) using the MTT (for MV-4-11 cells) or SRB assay described below. Cisplatin (chemotherapy drug used to treat a number of cancers) was used as a positive control. The results are presented as an inhibitory concentration 50 (IC50), which is the concentration of the tested agent that inhibits proliferation of the cell population by 50%. IC50 values for each experiment were calculated separately. […]

LoVo (colon cancer) = assay: Antiproliferative activity in vitro, SRB assay; type: cell-based, human; conditions: Homo sapiens, LoVo, 72 h, 72 h exposure, SRB; read-out: IC50 ± SD LoVo
Procedure: as §2, §3

[4] = Stability of flavonoids in DMSO (control), HPLC; type: physicochemical; conditions: 3 h of incubation
Procedure: Flavonoids were dissolved (as described in Section 2.4) to the concentration of 100 µg/mL. The solutions corresponding to the solutions before the administration to the cell cultures were incubated in 96-well plates for 3 h and transferred to microtubes containing 400 µL of cold methanol (−20 °C) and kept at −20 °C for 1 h. After centrifugation at 12,000× g for 10 min, samples were analyzed by HPLC. Control experiments were also carried out to determine the stability of flavonoids in DMSO under analogous conditions.

## O=c1cc(-c2ccc(O)cc2)oc2cc(O)cc(O)c12 [Compound 2, apigenin]
[1]
  TEAC ABTS: 0.250 ± 0.014 µmol trolox per µmol of tested
[2]
  TEAC DPPH: 0.005 ± 0.002 µmol trolox per µmol of tested
[3]
  IC50: 14.1 ± 0.91 µM
LoVo (colon cancer)
  IC50: 13.8 ± 1.38 µM
[4]
  compound observed after incubation in DMSO: over 99%

## O=C1C[C@@H](c2ccc(O)cc2)Oc2cc(O)cc(O)c21 [Compound 6, naringenin]
[1]
  TEAC ABTS: 0.347 ± 0.020 µmol trolox per µmol of tested
[2]
  TEAC DPPH: 0.017 ± 0.002 µmol trolox per µmol of tested
[3]
  IC50: 114 ± 18.6 µM
LoVo (colon cancer)
  IC50: 121 ± 4.3 µM
[4]
  compound observed after incubation in DMSO: over 99%

## O=c1cc(-c2ccc(O)cc2)oc2c(O)c(O)cc(O)c12 [Compound 10, 8-hydroxyapigenin]
[1]
  TEAC ABTS: 10.184 ± 1.768 µmol trolox per µmol of tested
[2]
  TEAC DPPH: 5.560 ± 0.121 µmol trolox per µmol of tested
[3]
  IC50: 122 ± 14.4 µM
LoVo (colon cancer)
  IC50: 235 ± 57.1 µM
[4]
  compound observed after incubation in DMSO: over 99%
